US12577226B2, “Compounds for treating Huntington's disease” (PTC THERAPEUTICS, INC., priority 2019, dated 2026)

Test system: Endogenous Huntingtin Protein (capture with MW1 (expanded polyglutamine) or MAB2166 antibody)
Experiment: Endogenous Huntingtin Protein Assay (ELISA-based Meso Scale Discovery electrochemiluminescence assay)
Assay type: cell-based
Conditions: MSD electrochemiluminescence platform
Experimental: Compounds of Formula (I), Formula (II), or Formula (III) were tested using the Meso Scale Discovery (MSD) Assay provided in International Application No. PCT/US2016/066042, filed on Dec. 11, 2016 and claiming priority to U.S. Provisional Application U.S. 62/265,652 filed on Dec. 10, 2015, the entire contents of which are incorporated herein by reference.
The Endogenous Huntingtin Protein assay used in Example 1 was developed using the ELISA-based MSD electrochemiluminescence assay platform.
Meso Scale Discovery (MSD) 96-well or 384-well plates were coated overnight at 4° C. with MW1 (expanded polyglutamine) or MAB2166 monoclonal antibody (for capture) at a concentration of 1 μg/mL in PBS (30 μL per well). Plates were then washed three times with 300 μL wash buffer (0.05% Tween-20 in PBS) and blocked (100 μL blocking buffer; 5% BSA in PBS) for 4-5 hours at room temperature with rotational shaking and then washed three times with wash buffer.
Samples (25 μL) were transferred to the antibody-coated MSD plate and incubated overnight at 4° C. After removal of the lysates, the plate was washed three times with wash buffer, and 25 μL of #5656S (Cell signaling; rabbit monoclonal) secondary antibody (diluted to 0.25 μg/mL in 0.05% Tween-20 in blocking buffer) was added to each well and incubated with shaking for 1 Hour at room temperature. Following incubation with the secondary antibody, the wells were rinsed with wash buffer after which 25 μL of goat anti-rabbit SULFO TAG secondary detection antibody (required aspect of the MSD system) (diluted to 0.25 μg/mL in 0.05% Tween-20 in blocking buffer) was added to each well and incubated with shaking for 1 hour at room temperature. After rinsing three times with wash buffer, 150 μL of read buffer T with surfactant (MSD) were added to each empty well, and the plate was imaged on a SI 6000 imager (MSD) according to manufacturers' instructions provided for 96- or 384-well plates.

| Molecule | IC50 |
| --- | --- |
| [2H]C([2H])([2H])n1cc(-c2cnc(-c3ccc(O[C@H]4C[C@]5(C)CC[C@](C)(C4)N5)nn3)c(O)c2)cn1 [Compound 33, 2-(6-{[(1R,3s,5S)-1,5-dimethyl-8-azabicyclo[3.2.1]octan-3-yl]oxy}pyridazin-3-yl)-5-[1-(^2H3)methyl-1H-pyrazol-4-yl]pyridin-3-ol and 2-(6-{[(1S,3r,5R)-1,5-dimethyl-8-azabicyclo[3.2.1]octan-3-yl]oxy}pyridazin-3-yl)-5-[1-(^2H3)methyl-1H-pyrazol-4-yl]pyridin-3-ol] | ≤ 100 nM |
| 2-(6-{[(3R,4S)-3-fluoro-2,2,6,6-tetramethylpiperidin-4-yl]oxy}pyridazin-3-yl)-5-[2-methyl-8-(trifluoromethyl)imidazo[1,2-a]pyridin-6-yl]pyridin-3-ol and 2-(6-{[(3S,4R)-3-fluoro-2,2,6,6-tetramethylpiperidin-4-yl]oxy}pyridazin-3-yl)-5-[2-methyl-8-(trifluoromethyl)imidazo[1,2-a]pyridin-6-yl]pyridin-3-ol [Compound 46] | 100 to 500 nM |
| 2-(6-{[(3R,4S)-3-fluoro-2,2,6,6-tetramethylpiperidin-4-yl]oxy}pyridazin-3-yl)-5-(2-methylimidazo[1,2-b]pyridazin-6-yl)pyridin-3-ol and 2-(6-{[(3S,4R)-3-fluoro-2,2,6,6-tetramethylpiperidin-4-yl]oxy}pyridazin-3-yl)-5-(2-methylimidazo[1,2-b]pyridazin-6-yl)pyridin-3-ol [Compound 48] | ≤ 100 nM |
| 2-{6-[(3S)-3-(propan-2-yl)piperazin-1-yl]pyridazin-3-yl}-5-(1H-pyrazol-4-yl)pyridin-3-ol and 2-{6-[(3R)-3-(propan-2-yl)piperazin-1-yl]pyridazin-3-yl}-5-(1H-pyrazol-4-yl)pyridin-3-ol [Compound 121] | ≤ 100 nM |
| CC1(C)C[C@@H](Oc2ccc(-c3ncc(-c4nc5cnccn5n4)cc3O)nn2)[C@@H](F)C(C)(C)N1.CC1(C)C[C@H](Oc2ccc(-c3ncc(-c4nc5cnccn5n4)cc3O)nn2)[C@H](F)C(C)(C)N1 (mixture of isomers) [Compound 72, 2-(6-{[(3R,4S)-3-fluoro-2,2,6,6-tetramethylpiperidin-4-yl]oxy}pyridazin-3-yl)-5-([1,2,4]triazolo[1,5-a]pyrazin-2-yl)pyridin-3-ol and 2-(6-{[(3S,4R)-3-fluoro-2,2,6,6-tetramethylpiperidin-4-yl]oxy}pyridazin-3-yl)-5-([1,2,4]triazolo[1,5-a]pyrazin-2-yl)pyridin-3-ol] | 100 to 500 nM |
| 5-(7-fluoro-2-methyl-2H-indazol-5-yl)-2-{6-[(3R,5S)-3,4,5-trimethylpiperazin-1-yl]pyridazin-3-yl}pyridin-3-ol and 5-(7-fluoro-2-methyl-2H-indazol-5-yl)-2-{6-[(3S,5R)-3,4,5-trimethylpiperazin-1-yl]pyridazin-3-yl}pyridin-3-ol [Compound 91] | ≤ 100 nM |
| Cc1cn2cc(-c3cnc(-c4ccc(N5CC6CC5CN6)nn4)c(O)c3)cnc2n1 (stereo not shown) [Compound 116, 2-[6-(2,5-diazabicyclo[2.2.1]heptan-2-yl)pyridazin-3-yl]-5-(2-methylimidazo[1,2-a]pyrimidin-6-yl)pyridin-3-ol] | 500 to 1000 nM |
| COc1cc(-c2cnc(-c3ccc(N4CC[C@@H](NC(C)(C)C)C4)nn3)c(O)c2)ncn1 [Compound 30, 2-{6-[(3R)-3-(tert-butylamino)pyrrolidin-1-yl]pyridazin-3-yl}-5-(6-methoxypyrimidin-4-yl)pyridin-3-ol] | ≤ 100 nM |
| 2-{6-[(3R)-(tert-butylamino)pyrrolidin-1-yl]pyridazin-3-yl}-5-(1-methyl-1H-pyrazol-3-yl)pyridin-3-ol and 2-{6-[(3S)-(tert-butylamino)pyrrolidin-1-yl]pyridazin-3-yl}-5-(1-methyl-1H-pyrazol-3-yl)pyridin-3-ol [Compound 17] | 500 to 1000 nM |
| CC1CN(c2ccc(-c3ncc(NCc4ccncc4)cc3O)nn2)CCN1 (stereo not shown) [Compound 111, 2-[6-(3-methylpiperazin-1-yl)pyridazin-3-yl]-5-{[(pyridin-4-yl)methyl]amino}pyridin-3-ol] | 500 to 1000 nM |
| [2H]C([2H])([2H])n1cc(-c2cnc(-c3ccc(O[C@H]4C[C@@H](C)NC5(CC5)C4)nn3)c(O)c2)cn1 [Compound 82, 2-(6-{[(5R,7S)-5-methyl-4-azaspiro[2.5]octan-7-yl]oxy}pyridazin-3-yl)-5-[1-(^2H3)methyl-1H-pyrazol-4-yl]pyridin-3-ol] | ≤ 100 nM |
| CN[C@@H]1CCN(c2ccc(-c3ncc(-c4ncco4)cc3O)nn2)C1 [Compound 80, 2-{6-[(3R)-3-(methylamino)pyrrolidin-1-yl]pyridazin-3-yl}-5-(1,3-oxazol-2-yl)pyridin-3-ol] | 100 to 500 nM |
| Cn1cc2cc(-c3cnc(-c4ccc(OC5CC(C)(C)NC(C)(C)C5)nn4)c(O)c3)cc(F)c2n1 [Compound 52, 5-(7-fluoro-2-methyl-2H-indazol-5-yl)-2-{6-[(2,2,6,6-tetramethylpiperidin-4-yl)oxy]pyridazin-3-yl}pyridin-3-ol] | ≤ 100 nM |
| Cn1ccc(-c2cnc(-c3ccc(OC4CC(C)(C)NC(C)(C)C4)nn3)c(O)c2)n1 [Compound 4, 5-(1-methyl-1H-pyrazol-3-yl)-2-{6-[(2,2,6,6-tetramethylpiperidin-4-yl)oxy]pyridazin-3-yl}pyridin-3-ol] | ≤ 100 nM |
| [2H]C([2H])([2H])n1cc(-c2cnc(-c3ccc(N(C)C4CC(C)(C)NC5(CC5)C4)nn3)c(O)c2)cn1 (stereo not shown) [Compound 53, 2-{6-[(5,5-dimethyl-4-azaspiro[2.5]octan-7-yl)(methyl)amino]pyridazin-3-yl}-5-[1-(^2H3)methyl-1H-pyrazol-4-yl]pyridin-3-ol] | ≤ 100 nM |
| CC(C)[C@H]1CN(c2ccc(-c3ncc(-c4cc(F)c5nn(C)cc5c4)cc3O)nn2)CCN1 [Compound 122, 5-(7-fluoro-2-methyl-2H-indazol-5-yl)-2-{6-[(3S)-3-(propan-2-yl)piperazin-1-yl]pyridazin-3-yl}pyridin-3-ol] | ≤ 100 nM |

Further lines, results first:

| IC50 | Molecule |
| --- | --- |
| ≤ 100 nM | CC1(C)C[C@@H](Oc2ccc(-c3ncc(-c4cn[nH]c4F)cc3O)nn2)[C@@H](F)C(C)(C)N1 [Compound 40, 5-(5-fluoro-1H-pyrazol-4-yl)-2-(6-{[(3S,4R)-3-fluoro-2,2,6,6-tetramethylpiperidin-4-yl]oxy}pyridazin-3-yl)pyridin-3-ol] |
| ≤ 100 nM | CN1CCN(c2ccc(-c3ncc(-c4cc(F)c5nn(C)cc5c4)cc3O)nn2)CC1 [Compound 101, 5-(7-fluoro-2-methyl-2H-indazol-5-yl)-2-[6-(4-methylpiperazin-1-yl)pyridazin-3-yl]pyridin-3-ol] |
| ≤ 100 nM | CN[C@@H]1CCN(c2ccc(-c3ncc(-c4cc(OC)ncn4)cc3O)nn2)C1 [Compound 70, 5-(6-methoxypyrimidin-4-yl)-2-{6-[(3R)-3-(methylamino)pyrrolidin-1-yl]pyridazin-3-yl}pyridin-3-ol] |
| ≤ 100 nM | CC1(C)CC(Oc2ccc(-c3ncc(-n4nccn4)cc3O)nn2)CC(C)(C)N1 [Compound 20, 2-{6-[(2,2,6,6-tetramethylpiperidin-4-yl)oxy]pyridazin-3-yl}-5-(2H-1,2,3-triazol-2-yl)pyridin-3-ol] |
| ≤ 100 nM | COc1cc(-c2cnc(-c3ccc(OC4CC(C)(C)NC(C)(C)C4F)nn3)c(O)c2)nn2cc(C)nc12 (mixture of isomers) [Compound 57, 2-(6-{[(3R,4S)-3-fluoro-2,2,6,6-tetramethylpiperidin-4-yl]oxy}pyridazin-3-yl)-5-(8-methoxy-2-methylimidazo[1,2-b]pyridazin-6-yl)pyridin-3-ol and 2-(6-{[(3S,4R)-3-fluoro-2,2,6,6-tetramethylpiperidin-4-yl]oxy}pyridazin-3-yl)-5-(8-methoxy-2-methylimidazo[1,2-b]pyridazin-6-yl)pyridin-3-ol] |
| ≤ 100 nM | CC1(C)CC(Oc2ccc(-c3ncc(-c4cn[nH]c4)cc3O)nn2)CC2(COC2)N1 (stereo not shown) [Compound 114, 2-{6-[(6,6-dimethyl-2-oxa-5-azaspiro[3.5]nonan-8-yl)oxy]pyridazin-3-yl}-5-(1H-pyrazol-4-yl)pyridin-3-ol] |
| ≤ 100 nM | 2-(6-{[(3R,4S)-3-fluoro-2,2,6,6-tetramethylpiperidin-4-yl]oxy}pyridazin-3-yl)-5-(1H-pyrazol-4-yl)pyridin-3-ol and 2-(6-{[(3S,4R)-3-fluoro-2,2,6,6-tetramethylpiperidin-4-yl]oxy}pyridazin-3-yl)-5-(1H-pyrazol-4-yl)pyridin-3-ol [Compound 6] |
| ≤ 100 nM | CC1(C)CC(Oc2ccc(-c3ncc(-n4nccn4)cc3O)nn2)CC2(CC2)N1 (stereo not shown) [Compound 21, 2-{6-[(5,5-dimethyl-4-azaspiro[2.5]octan-7-yl)oxy]pyridazin-3-yl}-5-(2H-1,2,3-triazol-2-yl)pyridin-3-ol] |
| ≤ 100 nM | Cn1cc2cc(-c3cnc(-c4cnc(N5CCN[C@@H](C6CC6)C5)nn4)c(O)c3)cc(F)c2n1 [Compound 158, 2-{3-[(3S)-3-cyclopropylpiperazin-1-yl]-1,2,4-triazin-6-yl}-5-(7-fluoro-2-methyl-2H-indazol-5-yl)pyridin-3-ol] |
